For data set [1] the following is noted: solubilized in Labrafac at 70° C., then cooling.
Description: Cyt-C16 was solubilized in Labrafac at 70° C. under magnetic stirring. […] The viscoelastic properties of the oleogels (Cyt-016 from 0.005 to 0.2 mmol·g^−1 of Labrafac, corresponding to Cyt-C16 from 0.25 to 9.95% (w/wLabrafac)), at 25° C. were measured using a Kinexus® rheometer (Malvern Instruments S.A., United Kingdom), with a plate plate geometry (diameter 20 mm, gap: 800 μm). The oleogels were deposited directly on the bottom plate geometry of the rheometer and the top plate geometry was placed in contact with the sample. Oscillatory strain sweeps at 1 Hz constant frequency were performed to determine the linear regime characterized by constant dynamic moduli (elastic: G′ and viscous: G″ moduli), independent of the strain amplitude. In this regime (0.01% constant shear strain), G′ and G′ were measured as a function of angular frequency (0.1 to 10 Hz). In addition, a temperature ramp from 25 to 70° C. (2° C.·min^−1) was performed at 0.01% constant shear strain and 1 Hz constant angular frequency. All these experiments were repeated in triplicate.
A further data set concerns THP-1 cells. Briefly: Cellular toxicity, MTS assay, THP-1 cells. The data set is classed as cell-based, human. Particulars: THP1 cell line, Cyt-C16 2.5% (w/wLabrafac) at the LNC surface. On the procedure:
THP-1 cells (human monocyte/macrophage cell line obtained from ATCC, Manassas, VA, USA) were grown in suspension at 37° C., 90% humidity, 5% CO2 in RPMI 1640 medium, completed with decomplemented FBS (10% v/v), penicillin (100 UI·mL^−1), streptomycin ([…]), amphotericin B ([…]), HEPES 10 mM (1% v/v), Pyruvate Sodium 100 mM (1% v/v) and β-mercaptoethanol 20 μM (1% v/v). Cell differentiation was induced in the same medium by adding PMA 200 nM. A 48-h incubation allows the cells to adhere (15·10^3 cells/well in a 96-well cell culture dish). After medium aspiration to eliminate non-adhered cells, cells were washed again with fresh medium.
B6-KPC3 cells (pancreas tumor from transgenic KPC mice) (gift from the Department of Oncology and Surgical Sciences of Padova, Pr. Vincenzo Bronte), were grown in suspension at 37° C., 90% humidity, 5% CO2 in DMEM medium, completed with decomplemented FBS (10% v/v), penicillin (100 UI·mL^−1), streptomycin ([…]), amphotericin B ([…]), HEPES 10 mM (1% v/v), L-glutamin 2 mM (1% v/v), and β-mercaptoethanol 20 μM (1% v/v). […] The cytotoxicitiy of diluted LNCs (diameter 50 or 100 nm), non-loaded or loaded with Cyt-C16 2.5% (w/wLabrafac), in cell culture medium, was determined. […] The percentage of cell viability was calculated according to the following equation: […]

A short description of data set [2]: Cyt-C16 concentration in the hydrogels of LNCs by LC-MS/MS. The data set is classed as physicochemical. The settings on record: LC-MS/MS recovery in hydrogels. On the procedure:
The Cyt-C16 concentrations in the hydrogels of LNCs were determined using a LC-MS/MS apparatus: Alliance® 295 system (Waters, Saint-Quentin-en-Yvelines, France) with a Zorbax—Eclipse XDB-C18 column 4.6×150 mm, 3.5 μm, (Agilent Technologies, Santa Clara, United States). The temperature was fixed to 25° C. The mobile phase consisted of methanol with formic acid 0.1% (v/v), at a flow rate of 0.8 mL·min^−1. The injection volume was 10 μL. The total HPLC effluent was directed into a Quattro Micro® triple quadrupole mass spectrometer (Waters Saint-Quentin-en-Yvelines, France). Ionization was achieved using turbo ion spray in positive ion mode. The mass spectrometer operated in multiple reactions monitoring (MRM) mode. The […] transitions for Cyt-C16 was 482>112 and 482>350. Cyt-C16 was diluted in methanol at concentration from 1.25 to 200 ng·mL^−1, in presence of non-loaded LNCs, for the calibration curve. A volume of 50 μL of hydrogels was dissolved with deionized water at 1:4000 (v/v), to obtain a complete dispersion of LNCs. Then, a volume of 100 μL was mixed with 900 μL of methanol. Quantification of Cyt-C16 was achieved after filtration of this solution on 0.22-μm filter.

For data set [3] the following is noted: phase-inversion process.
Excerpt: The LNCs formulation was based on a phase-inversion process, from oil-in-water emulsion at low temperature to water-in-oil emulsion at high temperature. The quantities of oil phase (Labrafac), aqueous phase (water and NaCl) and surfactants (Kolliphor and Span 80) for each formulation were precisely weighed. For 25 nm-diameter LNCs, mLabrafac=0.6 g, mKol=1.8 g, mSpan80=0.3 g, mWater=1.3 g and mNaCl=0.054 g; for 50 nm-diameter LNCs, mLabrafac=1.1168 g, mKol=0.9168 g, mSpan80=0.45 g, mWater=1.5168 g and mNaCl=0.054 g; for 75 nm-diameter LNCs, mLabrafac=1.8 g, mKol=1.3 g, mSpan80=0.3 g, mWater=0.6 g and mNaCl=0.054 g; for 100 nm-diameter LNCs, mLabrafac=1.8 g, mKol=0.95 g, mSpan80=0.3 g, mWater=0.95 g and mNaCl=0.054 g.
Then, Kolliphor and the aqueous phase were added and the mixture was heated to 75° C. under magnetic stirring followed by cooling to 45° C. (rate of 5° C.·min^−1). This cycle was repeated three times and during the last temperature decrease at the phase-inversion temperature (about 60° C.), an irreversible shock was induced by dilution with 2 mL of pure water. Afterwards, slow magnetic stirring was applied to the suspension of LNCs at room temperature, and a hydrogel was spontaneously formed. The gelation process was completed after 24 h at 4° C. Prior completed gelation, a part of the formulation was diluted by a factor of 60 (v/v) with pure water.
In another data set the test system is B6-KPC3 cells. Briefly: Cellular toxicity, MTS assay, B6-KPC3 cells. It is filed as cell-based, mice. Particulars: B6-KPC3 cell line, Cyt-C16 2.5% (w/wLabrafac) at the LNC surface. On the procedure:
B6-KPC3 cells (pancreas tumor from transgenic KPC mice) (gift from the Department of Oncology and Surgical Sciences of Padova, Pr. Vincenzo Bronte), were grown in suspension at 37° C., 90% humidity, 5% CO2 in DMEM medium, completed with decomplemented FBS (10% v/v), penicillin (100 UI·mL^−1), streptomycin ([…]), amphotericin B ([…]), HEPES 10 mM (1% v/v), L-glutamin 2 mM (1% v/v), and β-mercaptoethanol 20 μM (1% v/v). The cells (3.5·10^3 cells/well in 200-μL medium) were then plated on a 96-well cell culture dish and left to grow for 48 h at 37° C. The cytotoxicitiy of diluted LNCs (diameter 50 or 100 nm), non-loaded or loaded with Cyt-C16 2.5% (w/wLabrafac), in cell culture medium, was determined. Fresh cell culture medium was used as controls. […] The number of living cells was determined using a MTS (3-(4,5-dimethylthiazol-2-yl)-5-(3-carboxymethoxyphenyl)-2-(4-sulfophenyl)-2H-tetrazolium salt) assay (colorimetric assay based on the conversion of a tetrazolium salt into formazan). Formazan absorbance was measured at 492 nm and 750 nm, directly from well plates using a spectrophotometer Multiscan Ascent® MP reader (Thermo Scientific, Courtaboeuf, France), after exposition to MTS (20 μL per well) for 2.5 h at 37° C. The percentage of cell viability was calculated according to the following equation: […]

On to `CCCCCCCCCCCCCCCC(=O)Nc1ccn([C@@H]2O[C@H](CO)[C@@H](O)[C@H]2O)c(=O)n1` [Cyt-C16, 4-(N)-palmitoyl cytidine], for which the “oil gelation of Labrafac after cooling” value in data set [1] was “led to the oil gelation after cooling”. For the same compound, the “additional cytotoxicity in comparison to native LNCs” value in the data set with THP-1 cells and with B6-KPC3 cells was “does not cause additional cytoxicity” in each case. Further, the “degradation of the molecule by the formulation process” value in data set [2] is reported as “does not degrade”. Besides, the “effect of adding Cyt-C16 to the LNC formulation process” value in data set [3] is on record as “the LNCs suspension turned into a hydrogel”.

The values above are taken from patent US12186433B2, “Nanocapsules comprising modified nucleobases and/or nucleosides, hydrogels and oleogels comprising them and uses thereof” (UNIVERSITE D'ANGERS, priority 2017, dated 2025).
